Reference: PubChem BioAssay AID192 (DTP/NCI, 2004)
Values joined by “and” are separate entries in the source; they are usually repeats but may differ in a detail not shown here. Equal entries are not always repeated. Toxic doses and inconclusive results are not listed.

Test system: BDF1 mice, B16 melanoma ip, median survival T/C
Experiment: NCI In Vivo Anticancer Drug Screen. Data for tumor model B16 Melanoma (intraperitoneal) in B6D2F1 (BDF1) mice
Settings: endpoint: median survival time, higher = longer survival
Method in brief: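 Values are ratios of treated (T) to vehicle-control (C) measurements of survival or tumor size in tumor-bearing mice.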

[1] = dose: 5.0 mg/kg/injection, schedule: Q01DX009 (ip), vehicle: saline
[2] = dose: 10.0 mg/kg/injection, schedule: Q01DX009 (ip), vehicle: saline
[3] = dose: 12.5 mg/kg/injection, schedule: Q01DX009 (ip), vehicle: saline
[4] = dose: 2.0 mg/kg/injection, schedule: Q01DX009 (ip), vehicle: Klucel (hydroxypropylcellulose) (HPC)
[5] = dose: 50.0 mg/kg/injection, schedule: Q04DX003 (ip), vehicle: Klucel (hydroxypropylcellulose) (HPC)
[6] = dose: 100.0 mg/kg/injection, schedule: Q04DX003 (ip), vehicle: Klucel (hydroxypropylcellulose) (HPC)
[7] = dose: 25.0 mg/kg/injection, schedule: Q01DX009 (ip), vehicle: saline
[8] = dose: 50.0 mg/kg/injection, schedule: Q01DX009 (ip), vehicle: saline
[9] = dose: 100.0 mg/kg/injection, schedule: Q01DX009 (ip), vehicle: saline
[10] = dose: 100.0 mg/kg/injection, schedule: Q01DX009 (ip), vehicle: Klucel (hydroxypropylcellulose) (HPC)
[11] = dose: 200.0 mg/kg/injection, schedule: Q01DX009 (ip), vehicle: Klucel (hydroxypropylcellulose) (HPC)
[12] = dose: 25.0 mg/kg/injection, schedule: Q01DX009 (ip), vehicle: saline with Tween-80
[13] = dose: 50.0 mg/kg/injection, schedule: Q01DX009 (ip), vehicle: saline with Tween-80
[14] = dose: 25.0 mg/kg/injection, schedule: Q01DX009 (ip), vehicle: Klucel (hydroxypropylcellulose) (HPC)
[15] = dose: 50.0 mg/kg/injection, schedule: Q01DX009 (ip), vehicle: Klucel (hydroxypropylcellulose) (HPC)
[16] = dose: 12.5 mg/kg/injection, schedule: Q01DX009 (ip), vehicle: saline with Tween-80

In the case of `NC(=O)c1cc(N2CC2)c([N+](=O)[O-])cc1[N+](=O)[O-]`, the T/C [1] is reported as 104 % of control, the T/C [2] is reported as 109 % of control and the T/C (dose: 20.0 mg/kg/injection, schedule: Q01DX009 (ip), vehicle: saline) is reported as 95 % of control.

In the case of `O=[N+]([O-])O.[Cu+2].[NH-]CC[NH-].[NH-]CC[NH-]`, the T/C (dose: 3.0 mg/kg/injection, schedule: Q01DX009 (ip), vehicle: saline) is reported as 116 % of control, the T/C (dose: 6.0 mg/kg/injection, schedule: Q01DX009 (ip), vehicle: saline) is reported as 122 % of control and the T/C (dose: 12.0 mg/kg/injection, schedule: Q01DX009 (ip), vehicle: saline) is reported as 102 % of control. The T/C [3] was 87 % of control.

For `C=C1C(=O)OC2CC(C)C3C=CC(=O)C3CC12` (centres undefined), the T/C (dose: 0.5 mg/kg/injection, schedule: Q01DX009 (ip), vehicle: Klucel (hydroxypropylcellulose) (HPC)) was 101 % of control, the T/C (dose: 1.0 mg/kg/injection, schedule: Q01DX009 (ip), vehicle: Klucel (hydroxypropylcellulose) (HPC)) was 109 % of control and the T/C [4] was 101 % of control.

With `C=CCOCC(O)CN(C)c1ccccc1` (centres undefined) the T/C (dose: 25.0 mg/kg/injection, schedule: Q04DX003 (ip), vehicle: Klucel (hydroxypropylcellulose) (HPC)) was 92 % of control, the T/C [5] was 95 % of control and the T/C [6] was 89 % of control and 90 % of control. The T/C (dose: 400.0 mg/kg/injection, schedule: Q04DX003 (ip), vehicle: Klucel (hydroxypropylcellulose) (HPC)) was 88 % of control.

`CC[C@@]1(O)C(=O)OCc2c1cc1n(c2=O)Cc2cc3c(OC)cccc3nc2-1` was tested, and the T/C (dose: 0.39 mg/kg/injection, schedule: Q01DX009 (ip), vehicle: other) was 150 % of control, the T/C (dose: 0.79 mg/kg/injection, schedule: Q01DX009 (ip), vehicle: other) was 161 % of control and the T/C [4] was 175 % of control. The T/C (dose: 4.0 mg/kg/injection, schedule: Q01DX009 (ip), vehicle: carboxymethylcellulose (CMC)) was 172 % of control.

In the case of `C[N+]1(C)C2CC(=O)CC1C1CC12` (centres undefined) (tested in a mixture with another compound), the T/C [7] is reported as 102 % of control, the T/C [8] is reported as 89 % of control and the T/C [9] is reported as 99 % of control. For the same compound, the T/C (dose: 200.0 mg/kg/injection, schedule: Q01DX009 (ip), vehicle: saline) was 100 % of control.

In the case of `COC(=O)c1n[nH]c(C(C)C)c1N=NN(C)C`, the T/C (dose: 37.5 mg/kg/injection, schedule: Q01DX009 (ip), vehicle: saline with Tween-80) is reported as 110 % of control and the T/C (dose: 75.0 mg/kg/injection, schedule: Q01DX009 (ip), vehicle: saline with Tween-80) is reported as 115 % of control.

In the case of `O=c1[nH]cc(N(CCCl)CCCl)c(=O)[nH]1`, the T/C (dose: 0.05 mg/kg/injection, schedule: Q01DX009 (ip), vehicle: saline with Tween-80) is reported as 95 % of control, the T/C (dose: 0.08 mg/kg/injection, schedule: Q01DX009 (ip), vehicle: saline with Tween-80) is reported as 105 % of control and the T/C (dose: 0.14 mg/kg/injection, schedule: Q01DX009 (ip), vehicle: saline with Tween-80) is reported as 112 % of control. The T/C (dose: 0.19 mg/kg/injection, schedule: Q01DX009 (ip), vehicle: saline) was 107 % of control, the T/C (dose: 0.65 mg/kg/injection, schedule: Q01DX009 (ip), vehicle: saline with Tween-80) was 170 % of control and the T/C (dose: 1.1 mg/kg/injection, schedule: Q01DX009 (ip), vehicle: saline with Tween-80) was 205 % of control. The T/C (dose: 1.5 mg/kg/injection, schedule: Q01DX009 (ip), vehicle: saline) was 185 % of control.

`O=C(O)C(O)C(=O)O.[NH2-].[NH2-].[Pt+2]` was tested, and the T/C (dose: 1.0 mg/kg/injection, schedule: Q01DX009 (ip), vehicle: other) was 104 % of control, the T/C (dose: 8.0 mg/kg/injection, schedule: Q01DX009 (ip), vehicle: other) was 156 % of control and 175 % of control and 192 % of control and the T/C (dose: 16.0 mg/kg/injection, schedule: Q01DX009 (ip), vehicle: other) was 197 % of control and 288 % of control and 300 % of control. The T/C (dose: 32.0 mg/kg/injection, schedule: Q01DX009 (ip), vehicle: other) was 281 % of control.

In the case of `Cc1ccc(C)c(NC(=O)NC(C)C)c1`, the T/C [10] is reported as 106 % of control, the T/C [11] is reported as 100 % of control and the T/C (dose: 400.0 mg/kg/injection, schedule: Q01DX009 (ip), vehicle: Klucel (hydroxypropylcellulose) (HPC)) is reported as 103 % of control.

For `O=C(O)c1cc(C(=O)O)cc([N+](=O)[O-])c1`, the T/C [12] was 97 % of control and the T/C [13] was 100 % of control.

In the case of `CNC(Cc1ccccc1)c1ccccc1` (centres undefined), the T/C [14] is reported as 105 % of control, the T/C [15] is reported as 105 % of control and the T/C [10] is reported as 113 % of control.

For `Cc1ccc(OS(=O)(=O)c2ccc([N+](=O)[O-])cc2)cc1`, the T/C [15] was 97 % of control, the T/C [10] was 97 % of control and the T/C [11] was 111 % of control.

With `COC(=O)[C@]1(C)CCC[C@]2(C)[C@H]3CC4OO[C@@]3(CC[C@H]21)[C@H]1O[C@@]41C(C)C` the T/C (dose: 100.0 mg/kg/injection, schedule: Q01DX009 (ip), vehicle: saline with Tween-80) was 100 % of control and the T/C (dose: 200.0 mg/kg/injection, schedule: Q01DX009 (ip), vehicle: saline with Tween-80) was 113 % of control.

With `C[CH2][Pb]([Br])([CH2]C)[CH2]C` the T/C (dose: 3.12 mg/kg/injection, schedule: Q01DX009 (ip), vehicle: saline with Tween-80) was 91 % of control, the T/C (dose: 6.25 mg/kg/injection, schedule: Q01DX009 (ip), vehicle: saline with Tween-80) was 94 % of control and the T/C [16] was 89 % of control. The T/C [12] was 94 % of control.

With `CO/C(=C\c1ccc(OC)cc1)C(=O)O` the T/C [5] was 94 % of control, the T/C [6] was 100 % of control and the T/C (dose: 200.0 mg/kg/injection, schedule: Q04DX003 (ip), vehicle: Klucel (hydroxypropylcellulose) (HPC)) was 111 % of control.

`CCC(C)C(C(=O)OC1CCN(C)CC1)c1ccccc1` (centres undefined) was tested, and the T/C [7] was 101 % of control and the T/C [8] was 90 % of control.

For `FC(F)(F)c1ccc2c(c1)N(CCCN1CCN(CC[n+]3ccccc3)CC1)c1ccccc1S2`, the T/C (dose: 1.25 mg/kg/injection, schedule: Q01DX009 (ip), vehicle: saline) was 100 % of control, the T/C (dose: 2.5 mg/kg/injection, schedule: Q01DX009 (ip), vehicle: saline) was 105 % of control and the T/C [1] was 105 % of control and 107 % of control. The T/C [2] was 89 % of control and 97 % of control.

With `Cc1ccc(C(=O)CCl)c(C)c1` the T/C [16] was 90 % of control, the T/C [12] was 92 % of control and the T/C [13] was 95 % of control.

For `CC1=CC(=O)[C@@H](O)[C@]2(C)[C@H]3[C@@]4(O)OC[C@]35[C@H]([C@@H](C)[C@H]4O)[C@@H](OC(=O)c3ccccc3)C(=O)O[C@@H]5C[C@@H]12`, the T/C (dose: 0.25 mg/kg/injection, schedule: Q01DX009 (ip), vehicle: saline with Tween-80) was 118 % of control and the T/C (dose: 2.0 mg/kg/injection, schedule: Q01DX009 (ip), vehicle: saline with Tween-80) was 171 % of control.

In the case of `C1CC[N-]CC1.C1CC[N-]CC1.[Cl][Pt+2]([Cl])([Cl])[Cl]`, the T/C [15] is reported as 111 % of control, the T/C [10] is reported as 120 % of control and the T/C [11] is reported as 123 % of control.

With `C=C1C(=O)OCC2C(C(=O)O)=CC3C(C)C(C)=CC123` (centres undefined) the T/C (dose: 2.5 mg/kg/injection, schedule: Q01DX009 (ip), vehicle: Klucel (hydroxypropylcellulose) (HPC)) was 106 % of control, the T/C (dose: 3.12 mg/kg/injection, schedule: Q01DX009 (ip), vehicle: other) was 94 % of control and the T/C (dose: 5.0 mg/kg/injection, schedule: Q01DX009 (ip), vehicle: Klucel (hydroxypropylcellulose) (HPC)) was 98 % of control. The T/C (dose: 6.25 mg/kg/injection, schedule: Q01DX009 (ip), vehicle: other) was 101 % of control, the T/C (dose: 10.0 mg/kg/injection, schedule: Q01DX009 (ip), vehicle: Klucel (hydroxypropylcellulose) (HPC)) was 96 % of control and the T/C (dose: 12.5 mg/kg/injection, schedule: Q01DX009 (ip), vehicle: other) was 101 % of control. For the same compound, the T/C (dose: 20.0 mg/kg/injection, schedule: Q01DX009 (ip), vehicle: Klucel (hydroxypropylcellulose) (HPC)) was 98 % of control, the T/C (dose: 25.0 mg/kg/injection, schedule: Q01DX009 (ip), vehicle: other) was 111 % of control and the T/C (dose: 40.0 mg/kg/injection, schedule: Q01DX009 (ip), vehicle: Klucel (hydroxypropylcellulose) (HPC)) was 105 % of control.

With `CCCCCCCCC(=O)OCCNC(=O)C(C)OC(=O)CCCCCCCC` (centres undefined) the T/C [14] was 102 % of control, the T/C [15] was 103 % of control and the T/C [10] was 92 % of control.

For `CC1(C)N=C(N)N=C(N)N1c1ccc(OCC(=O)N2CCOCC2)c(Cl)c1`, the T/C [7] was 104 % of control, the T/C [8] was 93 % of control and the T/C [9] was 98 % of control.

For `CCN(CC)CCOC(=O)c1ccc(N)cc1`, the T/C (dose: 6.25 mg/kg/injection, schedule: Q01DX009 (ip), vehicle: saline) was 100 % of control, the T/C [3] was 92 % of control and the T/C [7] was 100 % of control. The T/C [8] was 107 % of control and the T/C [9] was 105 % of control.
